Experimental findings from patent US4885301A, “Purinone derivatives which have bronchodilator, vasodilator and anti-allergic activities” (Smith Kline & French Laboratories Limited, priority 1987, dated 1989) are described below.

Experiment [1] concerns guinea-pig isolated trachea. The experiment in a line: Anti-allergic activity in vitro: ovalbumin-induced contraction of isolated trachea from sensitized guinea pigs. Set-up: species or system guinea pig (male Hartley). The following applies: for activity at 100 µM / Emax at 100 µM: Cavia porcellus, mean ± S.E.; for activity at 100 µM: 0.2 h, 30 min pretreatment, 12 minutes after OA (0.1 μg/ml), decline P<0.05, read-out: OA-induced contractile force as percentage of vehicle-treated control; for Emax at 100 µM: prior to OA challenge, N=4, read-out: reduction of basal tone, as a percentage of the maximum response to carbachol; for inhibition of antigen-induced contraction (in words): guinea-pig isolated trachea, 100 μM. The method, then: The animals were injected intramuscularly with 0.7 ml of a 5.0% OA solution prepared in isotonic saline. Four weeks after sensitization tracheas were removed and cut into spiral strips. Each trachea was cut half, placed in 10-ml water-jacketed tissue baths and attached with biological tissue clips via silk suture to force displacement transducers for recording isometric tension. One half of each trachea served as a control for the corresponding drug-treated tissue. […] The tissue preparations were placed under 2 g passive tension and equilibrated for 60 minutes, during which time they were washed every 15 minutes with fresh buffer. Each tissue was pretreated for 45 minutes with meclofenamic acid (1 μM).
Tissues were pretreated with the compound under test (100 μM), or vehicle (0.4 mM NaOH) for 30 minutes prior to the addition of OA. OA (0.1 μg/ml) was added to all tissues and the contraction was monitored for 15 minutes. […] To evaluate effects of the test compounds, the degree of contraction was calculated 2 and 12 minutes after the addition of OA. OA-induced contraction of drug-treated tissues was expressed as a percentage of the response of vehicle-treated, paired controls.
Results are expressed as a mean ±S.E. of 4 experiments. Statistical significance of differences between the means of control and drug-treated groups was determined using a paired Student's t test.

The subject of experiment [2] is hindquarter vascular resistance. As to the kind of experiment: Vasodilatation in vivo: hindquarter blood flow in anaesthetised rats. Set-up: species or system rat (male Wistar). The following applies: Rattus norvegicus, iv, bolus i.v., read-out: EDHQ50 (dose required to produce a 50% increase in hindquarter blood flow). Here is the method:
Male Wistar rats (300 g) were anaesthetised with a sodium 5-ethyl-5-(1-methylpropyl)-2-thiobarbiturate/sodium pentobarbitone mixture i.p. (62.5 and 22.5 mg/kg respectively). The trachea was cannulated and the rats breathed spontaneously air enriched with O2 (5 ml/min). Blood pressure was recorded from a carotid artery and a jugular vein was cannulated for the administration of compounds. The temperature of the animal was maintained at 37° C. by the use of an electric blanket. […] The perfusion circuit was primed with 5% bovine serum albumin dissolved in 0.9% sodium chloride solution, pH adjusted to 7.4. Initially the pump rate was set between 10 and 15 ml/min to match the hind quarter perfusion pressure to that of the systemic circulation. Once set the pressure remained unaltered for the rest of the experiment. A change in the speed of the pump (equivalent to hindquarter blood flow) was used to assess the changes in hindquarter vascular resistance.
All compounds were administered as a bolus i.v. and from the dose response curves the dose required to produce a 50% increase in hindquarter blood flow (EDHQ50) was determined in μmoles/kg.

In experiment [3] the test system is U46619-induced bronchoconstriction. As to the kind of experiment: Bronchodilatation in vivo: U46619-induced bronchoconstriction in anaesthetised guinea-pigs. On the set-up: species or system guinea-pig (male Dunkin Hartley). The following applies: Cavia porcellus, iv; i.v. bolus; U46619 infused i.v. 2.5 nmol/min; peak inhibition; read-out: BD50 (dose required to reduce the U46619-induced bronchoconstriction by 50%). The method, then:
Male guinea-pigs of the Dunkin Hartley strain (500-600 g) were anaesthetised with Sagatal (pentobarbital sodium) (60 mg/kg).
The dose of compound required to reduce the U46619-induced bronchoconstriction by 50% is given as the BD50.

The subject of experiment [4] is antigen-induced bronchoconstriction. As to the kind of experiment: Anti-allergic activity in vivo: ovalbumin-induced bronchoconstriction in sensitized anesthetized guinea pigs. On the set-up: species or system guinea pig (adult male albino Hartley). The following applies: 100 μmol/kg intraduodenal. Here is the method: Adult male albino Hartley strain guinea pigs weighing 400-600 g were actively sensitized to OA according to the procedure hereinbefore described. To measure pulmonary mechanics, a polyethylene catheter was inserted into the trachea of anesthetized (sodium pentobarbital, 35 mg/kg, i.p.) animals and airflow was measured via a heated pneumotachograph in combination with a differential pressure transducer connected to the pneumotachograph. Airflow and transpulmonary pressure signals were fed into an on-line pulmonary mechanics computer which integrated the flow signal to obtain tidal volume. Total pulmonary resistance (RL) and dynamic lung compliance (CDYN) were calculated at isovolumetric points according to the method of Amdur and Mead (Am. J. Physiol. 192:364-368, 1958).
A compound under test was dissolved in 25 mM NaHCO3 plus one drop of polyethylene glycol 400 to a concentration of 100 mM. Based on the weight of the animal, the appropriate amount of solution was removed and the volume brought up to 1 ml with 25 mM NaHCO3. For the intraduodenal administration of test compounds, a small midline incision was made in the abdomen, the duodenum was exposed, and a butterfly needle attached to plastic tubing was inserted. All solutions were adjusted to the same volume (1 ml) and administered through the butterfly needle and followed with 0.5 ml of distilled water. The needle was then removed and the abdominal incision was stapled to prevent heat loss.
Aerosols of OA were generated to deliver approximately 0.375 μl/breath. Pressure, flow rate and sensitivity were set such that a maximum pleural pressure of 20 cm water was attained during inhalation. One hour after the administration of the test compounds, quinea pigs were challenged with 5 inhalations of OA (0.5 mg/ml) via the tracheal cannula and changes in CDYN and RL were monitored for 10 minutes. […]
Results are expressed as a mean ± S.E. of 4 experiments. Statistical significance of differences between the means of control and drug-treated groups was determined using a unpaired Student's t test.

Experiment [5] deals with T1, calmodulin insensitive cyclic GMP phosphodiesterase (Sus scrofa, UniProt A0A287B475).
T1 construct: Following dissection arteries were flash frozen in liquid nitrogen; from tissue; host or cells: pig pulmonary arteries or aortas, partially purified on DEAE-Sepharose, calmodulin-agarose and cibacron blue-agarose
The experiment in a line: Inhibition of phosphodiesterase (PDE), cyclic GMP hydrolysis. The class given is biochemical, pig. The following applies: 1 μM cyclic GMP, pH 7.5, 37° C. The method, then: (§1) Eight pig hearts/lungs were collected from the abattoir and kept on ice until the pulmonary arteries or aortas could be dissected and excess fat removed. 120 g of tissue was dissected. Unless otherwise stated all procedures were done at 4° C. Following dissection arteries were flash frozen in liquid nitrogen and stored at -70° C. until required. On the day of homogenisation, tissue was cooled with liquid nitrogen and broken into small pieces by striking with a hammer. The tissue was then homogenised in 15 mM BIS-TRIS, 1 μg/ml leupeptin and antipain, 2 μg/ml pepstatin A, 5 μM benzamidine, 2 mM EDTA (ethylenediaminetetraacetic acid) and 2 mM dithiothreitol, pH 6.5. Phenylmethanesulphonylfluoride (PMSF) was added to a final concentration of 50 μM just prior to homogenisation. The homogenate was then centrifuged for 20 minutes at 30,000 g. Supernatant was filtered firstly through glass wool and then a 0.45 μm filter. […] The column was washed with 150 mls of homogenisation buffer and PDE activities eluted with 150 ml of homogenisation buffer containing 100 mM sodium acetate. Six 25 ml fractions were collected, the flow rate throughout was 80 ml/hr.
Fractions 2 and 3 were pooled and BIS-TRIS, MgCl2, CaCl2 added to final concentrations of 50 mM, 7 mM and 5 mM respectively. PMSF, leupeptin, antipain and pepstatin A were also added at the concentrations described above for these components. The pH of this pooled sample was corrected to 6.9.
The sample was applied, at a flow rate of 3 ml/hr, to a tandem column set up. The first column in the tandem was a 5 ml calmodulin-agarose column (Sigma) and the second a 1.5 ml cibacron blue 3GA-agarose column (Sigma). Both columns were pre-equilibrated with 50 mM BIS-TRIS, 5 mM MgCl2, 5 mM CaCl2, 5 mM benzamidine, 2 mM dithiothreitol pH 6.9. Following application of the sample the columns were washed with 20 ml of equilibration buffer.
The cibacron blue-agarose column was then disconnected and washed with a variety of buffers as indicated below (Buffer A=50 mM BIS-TRIS, 5 mM benzamidine, 2 mM dithiotheitol pH 7.0).
20 ml Buffer A+2M NaCl, 5 mM MgCl2
20 ml Buffer A+2M NaCl, 10 mM EDTA
PDE activity bound to the column was eluted with eight 2.5 ml aliquots of Buffer A containing 2M NaCl, 10 mM EDTA and 10 mM cGMP. Fractions found to contain PDE activity were pooled and concentrated to approximately 1/3 the original volume by dialysis for 2 hr against Buffer A:glycerol (50:50) containing 15 mM 2-mercaptoethanol, 2 mM EDTA. After dialysis the concentration of cGMP in the fraction was reduced by treatment using a PD-10 column (Pharmacia) using dialysis buffer.
The fraction produced was stored at -20° C. and for experiments diluted 50-fold and used as the source of PDE activity for the assay of compounds.
The standard reaction mixture contained, in a final volume of 100 μl,
1 μM 3', 5'-cGMP (including 0.1 μCi ^3 H-cGMP)
and buffered with 50 mM TRIS/5 mM MgCl2 pH 7.5. The reaction was initiated with enzyme, and was carried out at 37° C. for 5-10 minutes. The reaction was terminated by placing tubes in a boiling water bath for 2 minutes. […] Unreacted ^3 H-cGMP was washed from the column with 10×1 ml HEPES/NaCl buffer. Labelled […] was eluted into a scintillation vial with 6 ml 0.25M acetic acid and counted in a scintillation counter using 10 ml Instagel (Packard). […] Assays were performed in duplicate and values corrected for blanks of <2%.

Experiment [6] deals with PDE activity isolated from pig pulmonary arteries or aortas. As to the kind of experiment: Properties of PDE activity: substrate kinetics. The class given is biochemical. Here is the method:
as §1
Fractions 2 and 3 were pooled and BIS-TRIS, MgCl2, CaCl2 added to final concentrations of 50 mM, 7 mM and 5 mM respectively. PMSF, leupeptin, antipain and pepstatin A were also added at the concentrations described above for these components. […]

As for `CCCOc1ccccc1-c1nc2nc[nH]c2c(=O)[nH]1` [Example 1, 2-(2-Propoxyphenyl)-6-purinone], in experiment [1], the activity at 100 µM stood at 46 ± 9%, the Emax at 100 µM was 17 ± 3% and the “inhibition of antigen-induced contraction (in words)” value is “inhibit antigen-induced contraction of the guinea-pig isolated trachea”. Further, in experiment [2], the ED50 was 10.8 µmol/kg. In addition, the ED50 in experiment [3] was 3.6 µmol/kg. The “antigen-induced bronchoconstriction (in words)” value in experiment [4] (60 minutes before OA challenge, N=4) was “significantly reduced antigen-induced bronchoconstriction”. The “increase in total pulmonary resistance (RL) after OA challenge” value in experiment [4] (60 minutes before OA, 5 minutes after challenge, N=4, mean ± S.E., P<0.05 vs. vehicle (vehicle 162±40%)) is reported as 51±26%. In addition, in experiment [4] (60 minutes before OA, 5 minutes after challenge, P<0.01 vs. vehicle), the “dynamic lung compliance (CDYN) after OA challenge (in words)” value is recorded as “unchanged from baseline”.
One may read the IC50 as the midpoint of a concentration-inhibition curve. A higher IC50 goes with weaker potency in that assay. As for `CCOc1ccccc1-c1nc2nc[nH]c2c(=O)[nH]1` [Example 2, 2-(2-Ethoxyphenyl)-6-purinone], in experiment [5], half-maximal inhibition (IC50) required 4.49 µM. Moreover, the ED50 in experiment [3] worked out at 6.5 µmol/kg.
With `CCCCOc1ccccc1-c1nc2nc[nH]c2c(=O)[nH]1` [Example 3, 2-(2-Butoxyphenyl)-6-purinone], the IC50 in experiment [5] worked out at 5.04 µM. Further, the ED50 in experiment [3] worked out at 3.8 µmol/kg.
For the compound `CC(C)COc1ccccc1-c1nc2nc[nH]c2c(=O)[nH]1` [Example 4, 2-(2-Isobutoxyphenyl)-6-purinone], in experiment [5], the IC50 is 1.74 µM. In experiment [3], the ED50 worked out at 5.3 µmol/kg.
As to `CCCOc1ccccc1-c1nc2[nH]c(=O)[nH]c2c(=O)[nH]1` [Example 5, 2-(2-Propoxyphenyl)purine-6,8-dione], in experiment [1], the activity at 100 µM came to 60 ± 4%, the Emax at 100 µM amounted to 24 ± 7% and the “inhibition of antigen-induced contraction (in words)” value is “inhibit antigen-induced contraction of the guinea-pig isolated trachea”. In addition, in experiment [2], the ED50 amounted to 3.7 µmol/kg. Also, the concentration for half-maximal inhibition (IC50) in experiment [5] worked out at 1.25 µM. In addition, the ED50 in experiment [3] came to 1 µmol/kg.
In turn, `CCOc1ccccc1-c1nc2[nH]c(=O)[nH]c2c(=O)[nH]1` [Example 7, 2-(2-Ethoxyphenyl)purine-6,8-dione] registered an IC50 in experiment [5] of 5.26 µM. Besides, the ED50 in experiment [3] stood at 3.6 µmol/kg.
In turn, `CCCCOc1ccccc1-c1nc2[nH]c(=O)[nH]c2c(=O)[nH]1` [Example 8, 2-(2-Butoxyphenyl)purine-6,8-dione] returned an IC50 in experiment [5] of 6.79 µM. The ED50 in experiment [3] was found to be 1.5 µmol/kg.
In experiment [5], `CC(C)COc1ccccc1-c1nc2[nH]c(=O)[nH]c2c(=O)[nH]1` [Example 9, 2-(2-Isobutoxypheny)purine-6,8-dione] returned an IC50 of 3.64 µM. In addition, in experiment [3], the ED50 stood at 4.5 µmol/kg.
For orientation: Km means the concentration of substrate that gives half-maximal velocity. In the case of `Nc1nc2c(ncn2[C@@H]2O[C@@H]3COP(=O)(O)O[C@H]3[C@H]2O)c(=O)[nH]1` [cGMP], the “Ratio of cGMP/cAMP hydrolysis” value in experiment [6] (1 μM substrate) is given as 30. Also, in experiment [6] (substrate of the isolated PDE), the Km was determined as 1.3 µM.
